Assays:
[1] = system: VEGF-stimulated HUVEC proliferation (Human Umbilical Vein Endothelial cells); test: HUVEC Proliferation Assay; type: cell-based; settings: VEGF 50 ng/mL, 72 h, CyQuant fluorescent dye, read-out: inhibited VEGF-stimulated HUVEC proliferation at a level
Summary of the method: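 HUVEC (passage 2–3) were seeded in DMEM+10% FBS for 22 h, then pre-incubated 2–3 h with 5-point, 5-fold compound dilutions (0.25% DMSO). They were then stimulated with VEGF (50 ng/mL final) for 72 h at 37 °C. Proliferation was read by CyQuant fluorescence (485/530 nm) after freeze-thaw, and IC50 came from a 4-parameter fit.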

CYP 2D6 = target: T1, CYP 2D6 (Homo sapiens, UniProt P10635); test: Human Liver Microsome CYP 2D6 Inhibition; type: in vitro ADME; settings: human liver microsomes, bufuralol substrate; read-out: inhibited CYP2D6 microsomes, IC50
T1 construct: followed by 555.6 ml of 20 mg/mL HLM (BD Gentest); tissue BD Gentest; host or cells: human liver microsomes
T1 sequence (P10635 whole entry): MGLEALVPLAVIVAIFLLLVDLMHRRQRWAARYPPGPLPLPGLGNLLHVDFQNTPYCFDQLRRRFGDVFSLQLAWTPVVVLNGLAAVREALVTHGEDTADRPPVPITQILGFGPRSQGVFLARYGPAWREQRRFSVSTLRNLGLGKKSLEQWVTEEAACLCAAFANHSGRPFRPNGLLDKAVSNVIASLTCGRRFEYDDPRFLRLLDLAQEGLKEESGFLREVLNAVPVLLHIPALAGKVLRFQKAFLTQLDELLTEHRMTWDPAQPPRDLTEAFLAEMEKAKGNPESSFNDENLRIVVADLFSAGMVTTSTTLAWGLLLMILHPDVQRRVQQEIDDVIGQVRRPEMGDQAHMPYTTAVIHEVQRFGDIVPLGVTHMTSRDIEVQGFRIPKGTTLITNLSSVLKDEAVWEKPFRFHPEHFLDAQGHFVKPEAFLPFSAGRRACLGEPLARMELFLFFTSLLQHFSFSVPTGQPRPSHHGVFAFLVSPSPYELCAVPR
Description: Determining the IC-50 for Human Liver Microsome CYP 2D6 Inhibition
Postassium Phosphate Buffer pH 7.4 (39.333 mL) is chilled in an ice bath and added to a 50 ml plastic tube. A 3.2 mM bufuralol solution is prepared. 111.1 ul of 3.2 mM bufuralol is added to the buffer followed by 555.6 ml of 20 mg/mL HLM (BD Gentest). The incubation mixture was gently inverted and equilibrated at 37° C. for 5 min. A stock inhibitor solution is prepared, such as in DMSO. Incubation mixture (801 ul) is added into 96-well, 1.2 mL plastic tubes. Inhibitor is added at various concentrations (e.g. 30 μM to […]). The tubes are sealed and mix by inverting 5 times gently. The incubation mixture containing inhibitor (270 μL) is added by aliquot into wells of a 1 mL, 96-well block (duplicate). The block is placed into a 37° C. water bath and equilibrated for 3 minutes. 10 mM NADPH (30 ml) is added to all samples. After 5 min, the reactions are stopped by adding 300 ml of Quench Solution [0.1% TFA in CH3CN]. 1′-OH-bufuralol-d9 (750 ng/mL 30 μL) is added, the block is gently vortexed then centrifuged at 3000 rpm for 10 min at 4° C. 50 μL of supernatant from all samples is added by aliquot into a shorter, 96-well block. The aliquoted supernatants are pooled with other assay(s) and HPLC Grade Water (50 μL) is added to all samples. After covering and shaking by vortex gently for 2 minutes, the solutions were analyzed by LC-MS (API 3000, 5% MeOH w/0.1% AcOH to 95% MeOH w/0.1% AcOH). 500 nM quinidine is used as a control.

CYP 3A4 = target: T2, CYP 3A4 (Homo sapiens, UniProt P08684); test: Human Liver Microsome CYP 3A4 Inhibition; type: in vitro ADME; settings: human liver microsomes, midazolam substrate; read-out: inhibited CYP3A4 microsomes, IC50
T2 construct: followed by 222.2 ml of 20 mg/mL HLM (BD Gentest); tissue BD Gentest; host or cells: human liver microsomes
T2 sequence (P08684 whole entry): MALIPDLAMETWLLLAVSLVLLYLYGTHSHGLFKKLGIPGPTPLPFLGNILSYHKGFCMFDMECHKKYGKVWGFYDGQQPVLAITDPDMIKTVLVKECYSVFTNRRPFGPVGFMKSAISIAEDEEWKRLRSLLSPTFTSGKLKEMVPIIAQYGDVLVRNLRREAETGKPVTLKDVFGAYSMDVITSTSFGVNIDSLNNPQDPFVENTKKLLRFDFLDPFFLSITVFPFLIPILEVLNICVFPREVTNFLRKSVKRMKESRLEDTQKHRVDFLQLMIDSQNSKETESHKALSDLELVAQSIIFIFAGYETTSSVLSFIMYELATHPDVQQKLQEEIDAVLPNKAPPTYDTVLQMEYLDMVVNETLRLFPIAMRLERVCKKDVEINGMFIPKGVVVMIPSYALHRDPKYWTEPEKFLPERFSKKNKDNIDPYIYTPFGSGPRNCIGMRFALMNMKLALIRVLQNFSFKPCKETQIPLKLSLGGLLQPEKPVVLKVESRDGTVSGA
Description: Determining the IC-50 for Human Liver Microsome CYP 3A4 Inhibition
Postassium Phosphate Buffer pH 7.4 (39.667 mL) is chilled in an ice bath and added to a 50 ml plastic tube. A 2 mM midazolam solution is prepared. 111.1 ul of 2 mM midazolam is added to the buffer followed by 222.2 ml of 20 mg/mL HLM (BD Gentest). The incubation mixture was gently inverted and equilibrated at 37° C. for 5 min. A stock inhibitor solution is prepared, such as in DMSO. Incubation mixture (801 ul) is added into 96-well, 1.2 mL plastic tubes. Inhibitor is added at various concentrations (e.g. 30 uM to 120 nM). The tubes are sealed and mix by inverting 5 times gently. The incubation mixture containing inhibitor (270 uL) is added by aliquot into wells of a 1 mL, 96-well block (duplicate). The block is placed into a 37° C. water bath and equilibrated for 3 min. 10 mM NADPH (30 ml) is added to all samples. After 5 minutes, the reactions are stopped by adding 300 ml of Quench Solution [0.1% TFA in CH3CN]. 1′-OH-Midazolam-d313C (2 mg/mL 30 uL) is added, the block is gently vortexed then centrifuged at 3000 rpm for 10 minutes at 4° C. 50 μL of supernatant from all samples is added by aliquot into a shorter, 96-well block. The aliquoted supernatants are pooled with other assay(s) and HPLC Grade Water (50 ul) is added to all samples. After covering and shaking by vortex gently for 2 minutes, the solutions were analyzed by LC-MS (API 3000,5% MeOH w/0.1% AcOH to 95% MeOH w/0.1% AcOH). 37 nM ketoconazole is used as a control.

SMILES | IC50 (CYP 2D6) | IC50 (CYP 3A4) | IC50 [1]
CN1CCC[C@@H]1COc1cc(NC(=O)c2cccnc2NCc2ccnc3[nH]ccc23)ccc1C(F)(F)F [Example 68, N-(3-((((2R)-1-methyl-2-pyrrolidinyl)methyl)oxy)-4-(trifluoromethyl)phenyl)-2-((1H-pyrrolo[2,3-b]pyridin-4-ylmethyl)amino)-3-pyridinecarboxamide] | – | > 20 µM | < 0.5 µM
O=C(Nc1ccc(C(F)(F)C(F)(F)F)c(OC[C@@H]2CCCN2)c1)c1cccnc1NCc1ccnc2[nH]ccc12 [Example 72, N-(4-(Pentafluoroethyl)-3-(((2S)-2-pyrrolidinylmethyl)oxy)phenyl)-2-((1H-pyrrolo[2,3-b]pyridin-4-ylmethyl)amino)-3-pyridinecarboxamide] | – | > 20 µM | < 0.5 µM
Cc1nc2cc(NC(=O)c3cccnc3NCc3ccnc4c3CC(=O)N4)ccc2s1 [Example 74, N-(2-methyl-1,3-benzothiazol-5-yl)-2-(((2-oxo-2,3-dihydro-1H-pyrrolo[2,3-b]pyridin-4-yl)methyl)amino)-3-pyridinecarboxamide] | > 20 µM | > 20 µM | –
O=C(Nc1ccc(C(F)(F)F)cc1)c1cc(F)cnc1NCc1ccnc2[nH]ccc12 [Example 78, 5-fluoro-2-((1H-pyrrolo[2,3-b]pyridin-4-ylmethyl)amino)-N-(4-(trifluoromethyl)phenyl)-3-pyridinecarboxamide] | – | > 20 µM | –
CC(C)(C)c1ccc(NC(=O)c2cc(F)cnc2NCc2ccnc3[nH]ccc23)cc1 [Example 79, N-(4-(1,1-dimethylethyl)phenyl)-5-fluoro-2-((1H-pyrrolo[2,3-b]pyridin-4-ylmethyl)amino)-3-pyridinecarboxamide] | > 20 µM | > 20 µM | –
O=C(Nc1ccc(Br)cc1)c1cc(F)cnc1NCc1ccnc2[nH]ccc12 [Example 89, N-(4-bromophenyl)-5-fluoro-2-((1H-pyrrolo[2,3-b]pyridin-4-ylmethyl)amino)-3-pyridinecarboxamide] | – | > 20 µM | < 0.5 µM
CCc1nc2cc(NC(=O)c3cc(F)cnc3NCc3ccnc4[nH]ccc34)ccc2o1 [Example 92, N-(2-ethyl-1,3-benzoxazol-5-yl)-5-fluoro-2-((1H-pyrrolo[2,3-b]pyridin-4-ylmethyl)amino)-3-pyridinecarboxamide] | – | > 20 µM | < 0.5 µM
CC(C)Oc1ccc(NC(=O)c2cc(F)cnc2NCc2ccnc3[nH]ccc23)cc1 [Example 95, 5-fluoro-N-(4-((1-methylethyl)oxy)phenyl)-2-((1H-pyrrolo[2,3-b]pyridin-4-ylmethyl)amino)-3-pyridinecarboxamide] | – | > 20 µM | –
O=C(Nc1cccc(C(F)(F)F)c1)c1cc(F)cnc1NCc1ccnc2[nH]ccc12 [Example 98, 5-fluoro-2-((1H-pyrrolo[2,3-b]pyridin-4-ylmethyl)amino)-N-(3-(trifluoromethyl)phenyl)-3-pyridinecarboxamide] | – | > 20 µM | < 0.5 µM
CC(C)c1nc2cc(NC(=O)c3cc(F)cnc3NCc3ccnc4[nH]ccc34)ccc2s1 [Example 103, 5-fluoro-N-(2-(1-methylethyl)-1,3-benzothiazol-5-yl)-2-((1H-pyrrolo[2,3-b]pyridin-4-ylmethyl)amino)-3-pyridinecarboxamide] | – | > 20 µM | < 0.5 µM
O=C(Nc1ccc(C(F)(F)F)c(F)c1)c1cc(F)cnc1NCc1ccnc2[nH]ccc12 [Example 107, 5-fluoro-N-(3-fluoro-4-(trifluoromethyl)phenyl)-2-((1H-pyrrolo[2,3-b]pyridin-4-ylmethyl)amino)-3-pyridinecarboxamide] | – | > 20 µM | < 0.5 µM
Cc1nc2cc(NC(=O)c3cc(F)cnc3NCc3ccnc4[nH]ncc34)ccc2s1 [Example 116, 5-fluoro-N-(2-methyl-1,3-benzothiazol-5-yl)-2-((1H-pyrazolo[3,4-b]pyridin-4-ylmethyl)amino)-3-pyridinecarboxamide] | > 20 µM | – | < 0.5 µM
O=C(Nc1ccc(C(F)(F)F)c(Cl)c1)c1cc(F)cnc1NCc1ccnc2[nH]ncc12 [Example 127, N-(3-Chloro-4-(trifluoromethyl)phenyl)-5-fluoro-2-((1H-pyrazolo[3,4-b]pyridin-4-ylmethyl)amino)-3-pyridinecarboxamide] | – | > 20 µM | < 0.5 µM

More lines, main results first:

IC50 (CYP 2D6) | IC50 (CYP 3A4) | SMILES | IC50 [1]
10 µM | 9.8 µM | CC1(C)CNCc2cc(NC(=O)c3cccnc3NCc3ccnc4[nH]ccc34)ccc21 [Example 1, N-(4,4-Dimethyl-1,2,3,4-tetrahydroisoquinolin-7-yl)-2-[(1H-pyrrolo[2,3-b]pyridin-4-ylmethyl)amino]nicotinamide] | < 0.5 µM
> 20 µM | > 20 µM | CC(C)(C)c1ccc(NC(=O)c2cccnc2NCc2ccnc3[nH]ccc23)cc1 [Example 5, N-(4-tert-Butylphenyl)-2-[(1H-pyrrolo[2,3-b]pyridin-4-ylmethyl)amino]nicotinamide] | < 0.5 µM
> 20 µM | > 20 µM | CC1(C)CCNc2cc(NC(=O)c3cccnc3NCc3ccnc4[nH]ccc34)ccc21 [Example 9, N-(4,4-Dimethyl-1,2,3,4-tetrahydroquinolin-7-yl)-2-[(1H-pyrrolo[2,3-b]pyridin-4-ylmethyl)amino]nicotinamide] | < 0.5 µM
– | > 20 µM | O=C(Nc1cccc(C(O)(C(F)(F)F)C(F)(F)F)c1)c1cccnc1NCc1ccnc2[nH]ccc12 [Example 18, 2-[(1H-Pyrrolo[2,3-b]pyridin-4-ylmethyl)amino]-N-{3-[2,2,2-trifluoro-1-hydroxy-1-(trifluoromethyl)ethyl]phenyl}nicotinamide] | < 0.5 µM
> 20 µM | > 20 µM | CC1(C)CC(=O)Nc2cc(NC(=O)c3cccnc3NCc3ccnc4c3CCN4)ccc21 [Example 30, 2-[(2,3-Dihydro-1H-pyrrolo[2,3-b]pyridin-4-ylmethyl)amino]-N-(4,4-dimethyl-2-oxo-1,2,3,4-tetrahydroquinolin-7-yl)nicotinamide] | –
– | > 20 µM | CC(=O)N1CC(C)(C)c2ccc(NC(=O)c3cccnc3NCc3c[nH]c4ncccc34)cc21 [Example 39, N-(1-acetyl-3,3-dimethyl-2,3-dihydro-1H-indol-6-yl)-2-[(1H-pyrrolo[2,3-b]pyridin-3-ylmethyl)amino]nicotinamide] | < 0.5 µM
– | > 20 µM | CN1CCC[C@H]1COc1cc(NC(=O)c2cccnc2NCc2ccnc3[nH]ccc23)ccc1C(F)(F)C(F)(F)F [Example 65, N-(3-((((2S)-1-methyl-2-pyrrolidinyl)methyl)oxy)-4-(pentafluoroethyl)phenyl)-2-((1H-pyrrolo[2,3-b]pyridin-4-ylmethyl)amino)-3-pyridinecarboxamide] | < 0.5 µM
8.7 µM | 2.7 µM | CC(C)(C)c1ccc(NC(=O)c2cccnc2NCc2ccncc2)cc1 [N-(4-tert-Butylphenyl)-2-((4-pyridinylmethyl)amino)-3-pyridinecarboxamide, reference compound] | –
